Laboratory results published in patent publication US9884806B2, “Cyclic vinylogous amides as bromodomain inhibitors” (ICAHN SCHOOL OF MEDICINE AT MOUNT SINAI, priority 2013, dated 2018).

Assays:
BRD4_2 = target: T1, BRD4_2 (Homo sapiens, UniProt O60885); test: Fluorescence anisotropy binding assay (competition with FITC-labeled MS417 probe), BRD4_2; conditions: FITC-MS417 probe 80 nM, PBS pH 7.4, 1 hour, 25° C.
T1 construct: contains two tandem bromodomains (BrD1 and BrD2)

[1] = target: T2, first bromodomain (BrD1) of human BRD4 (Homo sapiens, UniProt O60885); test: Fluorescence anisotropy binding assay (competition with FITC-labeled MS417 probe); conditions: FITC-MS417 probe 80 nM, PBS pH 7.4, 1 hour, 25° C., read-out: BRD4_1 IC50
T2 construct: the first bromodomain (BrD1) of human BRD4; poly-His (cleaved yes); made in house
Summary of the method: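 BRD4 BrD1 (His tag removed by thrombin) at 0.25 to 1 μM competed against 80 nM FITC-labeled MS417 in PBS pH 7.4. Anisotropy read after 1 hour at 25° C. Ki derived from fitted IC50 by Nikolovska-Coleska-corrected Cheng-Prusoff equation, one-site competitive model.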

| SMILES | melting point | IC50 (BRD4_2) | IC50 [1] |
| --- | --- | --- | --- |
| CC1=C(Nc2cc(C(=O)O)ccc2Cl)CCC1=O [Example 01-25, 4-chloro-3((2-methyl-3-oxocyclopent-1-en-1-yl)amino)benzoic acid] | 272 to 275 °C | > 10 µM | 1 to 10 µM |
| CC1=C(Nc2cccc3ccccc23)CCC1=O [Example 01-26, 2-methyl-3-(naphthalen-1-ylamino)cyclopent-2-enone] | 166 to 168 °C | 1 to 10 µM | 1 to 10 µM |
| CC1=C(Nc2ccc3ccccc3c2)CCC1=O [Example 01-27, 2-methyl-3-(naphthalen-2-ylamino)cyclopent-2-enone] | 248 to 250 °C | 1 to 10 µM | 1 to 10 µM |
| CC1=C(Nc2ccccn2)CCC1=O [Example 01-28, 2-methyl-3-(pyridin-2-ylamino)cyclopent-2-enone] | 163 to 165 °C | > 10 µM | > 10 µM |
| CC1=C(Nc2cccnc2)CCC1=O [Example 01-29, 2-methyl-3-(pyridin-3-ylamino)cyclopent-2-enone] | 133 to 135 °C | > 10 µM | > 10 µM |
| CC1=C(Nc2ccncc2)CCC1=O [Example 01-30, 2-methyl-3-(pyridin-4-ylamino)cyclopent-2-enone] | 203 to 205 °C | 1 to 10 µM | 1 to 10 µM |
| CC1=C(Nc2ccc(C(N)=O)cc2)CCCC1=O [Example 01-35, 4((2-methyl-3-oxocyclohex-1-en-1-yl)amino)benzamide] | 221 to 223 °C | 1 to 10 µM | 1 to 10 µM |
| CC1=C(Nc2cccc(CC(=O)O)c2)CCCC1=O [Example 01-37, 2-(3((2-methyl-3-oxocyclohex-1-en-1-yl)amino)phenyl)acetic acid] | 203 to 207 °C | > 10 µM | > 10 µM |
| CC(=O)Nc1ccc(Cl)c(NC2=C(C)C(=O)CC2)c1 [Example 01-42, N-(4-chloro-3-((2-methyl-3-oxocyclopent-1-en-1-yl)amino)phenyl)-acetamide] | 265 to 268 °C | 1 to 10 µM | < 1 µM |
| COC(=O)c1ccc(NC2=C(C)C(=O)CC2)c(I)c1 [Example 01-43, methyl 3-iodo-4-((2-methyl-3-oxocyclopent-1-en-1-yl)amino)benzoate] | 178 to 180 °C | 1 to 10 µM | 1 to 10 µM |
| CC1=C(Nc2cccc(C(=O)O)c2Cl)CCC1=O [Example 01-44, 2-chloro-3((2-methyl-3-oxocyclopent-1-en-1-yl)amino)benzoic acid] | 230 to 232 °C | > 10 µM | 1 to 10 µM |
| CC1=C(Nc2cc(C(=O)O)ccc2Br)CCCC1=O [Example 01-48, 4-bromo-3((2-methyl-3-oxocyclohex-1-en-1-yl)amino)benzoic acid] | 265 to 267 °C | > 10 µM | 1 to 10 µM |
| CC1=C(Nc2ncccc2Cl)CCCC1=O [Example 01-49, 3-[(3-chloropyridin-2-yl)amino]-2-methylcyclohex-2-en-1-one] | 113 to 115 °C | > 10 µM | 1 to 10 µM |
| CC1=C(Nc2nccnc2Cl)CCCC1=O [Example 01-50, 3-[(3-chloropyrazin-2-yl)amino]-2-methylcyclohex-2-en-1-one] | 116 to 118 °C | > 10 µM | > 10 µM |
| CC1=C(Nc2ccncc2Cl)CCCC1=O [Example 01-51, 3-[(3-chloropyridin-4-yl)amino]-2-methylcyclohex-2-en-1-one] | 135 to 138 °C | > 10 µM | 1 to 10 µM |
| CC1=C(Nc2cc(C(=O)O)c3ccccc3c2)CCCC1=O [Example 01-52, 3-[(2-methyl-3-oxocyclohex-1-en-1-yl)amino]naphthalene-1-carboxylic acid] | 270 to 272 °C | 1 to 10 µM | 1 to 10 µM |
| CC1=C(Nc2ccc3cc(C(=O)O)ccc3c2Cl)CCCC1=O [Example 01-53, 5-chloro-6-[(2-methyl-3-oxocyclohex-1-en-1-yl)amino]naphthalene-2-carboxylic acid] | 272 to 275 °C (dec.) | 1 to 10 µM | < 1 µM |
| CC1=C(Nc2ccc3ncccc3c2)CCCC1=O [Example 01-54, 2-methyl-3-[(quinolin-6-yl)amino]cyclohex-2-en-1-one] | 208 to 210 °C | 1 to 10 µM | 1 to 10 µM |
| CC1=C(Nc2ccc3cnccc3c2)CCCC1=O [Example 01-55, 3-[(isoquinolin-6-yl)amino]-2-methylcyclohex-2-en-1-one] | 163 to 165 °C | 1 to 10 µM | 1 to 10 µM |
| CC1=C(Nc2ccc3ccncc3c2)CCCC1=O [Example 01-56, 3-[(isoquinolin-7-yl)amino]-2-methylcyclohex-2-en-1-one] | 145 to 147 °C | > 10 µM | 1 to 10 µM |
| CC1=C(Nc2ccc3cccnc3c2)CCCC1=O [Example 01-57, 2-methyl-3-[(quinolin-7-yl)amino]cyclohex-2-en-1-one] | 133 to 135 °C | 1 to 10 µM | 1 to 10 µM |
| CC1=C(Nc2cc3ccccc3cn2)CCCC1=O [Example 01-58, 3-[(isoquinolin-3-yl)amino]-2-methylcyclohex-2-en-1-one] | 205 to 208 °C | 1 to 10 µM | 1 to 10 µM |
| CC1=C(Nc2cnc3ccccc3c2)CCCC1=O [Example 01-59, 2-methyl-3-[(quinolin-3-yl)amino]cyclohex-2-en-1-one] | 172 to 175 °C | > 10 µM | 1 to 10 µM |
| CC1=C(Nc2ccc3nccnc3c2)CCCC1=O [Example 01-60, 2-methyl-3-[(quinoxalin-6-yl)amino]cyclohex-2-en-1-one] | 110 to 112 °C | 1 to 10 µM | 1 to 10 µM |
| CC1=C(Nc2ccc3ncncc3c2)CCCC1=O [Example 01-61, 2-methyl-3-[(quinazolin-6-yl)amino]cyclohex-2-en-1-one] | 215 to 216 °C | > 10 µM | > 10 µM |
| CC1=C(Nc2ccc3cc[nH]c3c2)CCCC1=O [Example 01-62, 3-[(1H-indol-6-yl)amino]-2-methylcyclohex-2-en-1-one] | 227 to 230 °C | 1 to 10 µM | < 1 µM |
| CC1=C(Nc2ccc3[nH]c(=O)[nH]c3c2)CCCC1=O [Example 01-63, 5-[(2-methyl-3-oxocyclohex-1-en-1-yl)amino]-2,3-dihydro-1H-1,3-benzodiazol-2-one] | 233 to 235 °C | 1 to 10 µM | 1 to 10 µM |
| CC1=C(Nc2ccc3[nH]c(C(=O)O)cc3c2)CCCC1=O [Example 01-64] | 310 to 315 °C | 1 to 10 µM | < 1 µM |

Other lines, results leading:

| melting point | IC50 (BRD4_2) | IC50 [1] | SMILES |
| --- | --- | --- | --- |
| 182 to 184 °C | 1 to 10 µM | 1 to 10 µM | CC1=C(Nc2cc(N)ccc2Cl)CCCC1=O [Example 02-10, 3-((5-amino-2-chlorophenyl)amino)-2-methylcyclohex-2-enone] |
| 156 to 158 °C | 1 to 10 µM | 1 to 10 µM | CC1=C(Nc2ccc(N)cc2Cl)CCCC1=O [Example 02-12, 3-((4-amino-2-chlorophenyl)amino)-2-methylcyclohex-2-enone] |
| 223 to 225 °C | 1 to 10 µM | 1 to 10 µM | CC1=C(Nc2cccc(N)c2Cl)CCC1=O [Example 02-13, 3-((3-amino-2-chlorophenyl)amino)-2-methylcyclopent-2-enone] |
| 166 to 168 °C | 1 to 10 µM | 1 to 10 µM | CC1=C(Nc2cc(N)ccc2Cl)CCC1=O [Example 02-15, 3-((5-amino-2-chlorophenyl)amino)-2-methylcyclopent-2-en-1-one] |
| 222 to 224 °C | 1 to 10 µM | < 1 µM | COc1ccc(NC(=O)c2ccc(NC3=C(C)C(=O)CC3)c(I)c2)cc1 [Example 04-104, 3-iodo-N-(4-methoxyphenyl)-4-((2-methyl-3-oxocyclopent-1-en-1-yl)amino)benzamide] |
| 249 to 250 °C (dec.) | 1 to 10 µM | < 1 µM | CC1=C(Nc2cc(C(=O)Nc3ccccc3C)c3ccccc3c2)CCCC1=O [Example 04-106, 3-((2-methyl-3-oxocyclohex-1-en-1-yl)amino)-N-(o-tolyl)-1-naphthamide] |
| 254 to 257 °C | > 10 µM | < 1 µM | COc1ccc(C(=O)Nc2ccc(Cl)c(NC3=C(C)C(=O)CC3)c2)cc1 [Example 05-37, N-(4-chloro-3-((2-methyl-3-oxocyclopent-1-en-1-yl)amino)phenyl)-4-methoxybenzamide] |
| 230 to 232 °C | < 1 µM | < 1 µM | CC1=C(Nc2cc(NC(=O)c3ccccc3C)ccc2Cl)CCC1=O [Example 05-38, N-(4-chloro-3-((2-methyl-3-oxocyclopent-1-en-1-yl)amino)phenyl)-2-methylbenzamide] |
| 240 to 242 °C | 1 to 10 µM | < 1 µM | CC1=C(Nc2cc(NC(=O)C3CCCCC3)ccc2Cl)CCC1=O [Example 05-39, N-(4-chloro-3-[(2-methyl-3-oxocyclopent-1-en-1-yl)amino]phenyl)-cyclohexanecarboxamide] |
| 243 to 245 °C | < 1 µM | < 1 µM | CC1=C(Nc2cc(NC(=O)c3cccc4ccccc34)ccc2Cl)CCC1=O [Example 05-40, N-(4-chloro-3-[(2-methyl-3-oxocyclopent-1-en-1-yl)amino]phenyl)-naphthalene-1-carboxamide] |
